Assay results: patent US11999727B2 (Tango Therapeutics, Inc., priority 2020, dated 2024)
pIC50: −log10 of the molar value.

Columns and labels:
PRMT5 [1] = target: T1, PRMT5 (Homo sapiens, UniProt O14744); test: PRMT5 biochemical IC50 assay with SAM as cofactor; conditions: PRMT5, SAM as cofactor; read-out: SAM IC50
T1 construct: purchased Viva (custom protein)

[2] = tested on: HAP1 MTAP-deleted cell line; test: Viability assay, MTAP-deleted cell line; format: cell-based; conditions: Homo sapiens, HAP1, viability assay, MTAP-deleted cell line; read-out: HAP1 MTAP deleted viability
From the text: Table 1 additionally indicates IC50 values in a viability assay for the MTAP-deleted cell line (column 10), indicating the effect of treatment with compound on cell survival.

PRMT5 [3] = target: T1, PRMT5; test: PRMT5 biochemical IC50 assay with MTA as cofactor; conditions: PRMT5, MTA as cofactor; read-out: MTA IC50
[4] = tested on: HAP1 MTAP-deleted cell line; test: SDMA in-cell western assay, HAP1 MTAP-deleted; format: cell-based; conditions: for pIC50: Homo sapiens, HAP1, SDMA in-cell western, HAP1 MTAP-deleted, read-out: HAP1 MTAP deleted IC50; for MTAP intact/deleted ratio: IC50 ratio HAP1 MTAP-intact / HAP1 MTAP-deleted, SDMA in-cell western
Outline: (§1)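 Isogenic HAP1 pair: the MTAP-intact line expresses endogenous MTAP, and the deleted line is MTAP-null. Symmetric dimethylarginine was detected by in-cell western and IC50 values derived for each line.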

[5] = tested on: HAP1 MTAP-intact cell line; test: SDMA in-cell western assay, HAP1 MTAP-intact; format: cell-based; conditions: Homo sapiens, HAP1, SDMA in-cell western, HAP1 MTAP-intact; read-out: MTAP HAP1 intact IC50
Outline: as §1

PRMT5 [6] = target: T1, PRMT5; test: PRMT5 biochemical IC50 assay with no cofactor; conditions: PRMT5, no cofactor; read-out: No Cofactor/rel IC50
From the text: Table 1 indicates IC50 values (μM) against PRMT5 for exemplary compounds in the presence of SAM as cofactor, with no cofactor, and with MTA as cofactor, respectively (columns 4-6). […] Ki values can be calculated from the IC50 values as described in the Examples section. As detailed in the Examples section, for the assay performed in the presence of SAM, IC50=Ki×1.5 (Ki=IC50/1.5).

T1 sequence (O14744 whole entry): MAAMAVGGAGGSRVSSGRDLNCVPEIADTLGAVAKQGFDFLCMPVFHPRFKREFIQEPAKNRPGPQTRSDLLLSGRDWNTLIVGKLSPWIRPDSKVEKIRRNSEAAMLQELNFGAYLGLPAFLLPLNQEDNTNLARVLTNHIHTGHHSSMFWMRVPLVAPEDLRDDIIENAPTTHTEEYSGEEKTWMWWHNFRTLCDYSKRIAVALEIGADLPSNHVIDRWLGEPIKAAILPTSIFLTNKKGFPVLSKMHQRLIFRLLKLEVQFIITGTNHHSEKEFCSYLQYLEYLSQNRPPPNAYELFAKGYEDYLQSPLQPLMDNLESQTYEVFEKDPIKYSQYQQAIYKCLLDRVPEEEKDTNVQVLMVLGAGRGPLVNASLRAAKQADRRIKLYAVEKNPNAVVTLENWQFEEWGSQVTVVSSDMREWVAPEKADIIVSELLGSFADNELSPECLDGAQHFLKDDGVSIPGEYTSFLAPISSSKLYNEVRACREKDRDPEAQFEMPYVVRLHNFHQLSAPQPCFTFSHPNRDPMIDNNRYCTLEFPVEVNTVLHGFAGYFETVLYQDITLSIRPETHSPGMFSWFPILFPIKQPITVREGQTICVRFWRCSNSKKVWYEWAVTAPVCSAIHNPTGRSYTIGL
T1 sequence (Q9BQA1 whole entry partner): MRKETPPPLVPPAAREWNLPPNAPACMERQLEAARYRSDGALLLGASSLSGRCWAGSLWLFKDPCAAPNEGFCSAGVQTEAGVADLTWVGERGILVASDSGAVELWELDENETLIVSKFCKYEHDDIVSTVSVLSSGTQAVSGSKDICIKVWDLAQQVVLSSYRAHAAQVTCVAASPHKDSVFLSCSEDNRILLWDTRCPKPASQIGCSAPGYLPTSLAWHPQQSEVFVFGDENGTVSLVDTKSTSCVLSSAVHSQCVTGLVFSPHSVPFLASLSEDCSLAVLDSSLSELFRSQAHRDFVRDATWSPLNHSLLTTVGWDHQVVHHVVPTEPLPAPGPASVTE

SMILES	pIC50 (PRMT5 [1])	pIC50 [2]	pIC50 (PRMT5 [3])	pIC50 [4]	MTAP intact/deleted ratio [4]	pIC50 [5]	pIC50 (PRMT5 [6])
C[C@@H]1CC[C@@H](c2ccnc(C(F)(F)F)c2)N(C(=O)C(=O)Nc2cncc(C(N)=O)c2)C1 (racemic) [Compound 221, rac-5-{2-[(2R,5S)-5-Methyl-2-[2-(trifluoromethyl)pyridin-4-yl]piperidin-1-yl]-2-oxoacetamido}pyridine-3-carboxamide]	6.30 to 7.30	< 5.00	6.30 to 7.30	6.00 to 7.00	A (an IC50 ratio greater than or equal to 10 fold)	< 6.00	6.30 to 7.30
COc1cc([C@@H]2CC[C@@H](C)CN2C(=O)C(=O)Nc2cncc(C(N)=O)c2)ccc1F (racemic) [Compound 222, rac-5-{2-[(2R,5S)-2-(4-Fluoro-3-methoxyphenyl)-5-methylpiperidin-1-yl]-2-oxoacetamido}pyridine-3-carboxamide]	6.30 to 7.30	5.00 to 6.00	> 7.30	6.00 to 7.00	A (an IC50 ratio greater than or equal to 10 fold)	< 6.00	6.30 to 7.30
COc1cc([C@@H]2CC[C@@H](C)CN2C(=O)C(=O)Nc2cncc(C(N)=O)c2)cnc1C(F)(F)F (racemic) [Compound 223, rac-5-{2-[(2R,5S)-2-[5-Methoxy-6-(trifluoromethyl)pyridin-3-yl]-5-methylpiperidin-1-yl]-2-oxoacetamido}pyridine-3-carboxamide]	< 6.30	< 5.00	6.30 to 7.30	< 6.00	C (an IC50 ratio of less than 3 fold)	< 6.00	< 6.30
C[C@@H]1CC[C@@H](c2ccc(N)nc2)N(C(=O)C(=O)Nc2cncc(C(N)=O)c2)C1 (racemic) [Compound 224, rac-5-{2-[(2R,5S)-2-(6-Aminopyridin-3-yl)-5-methylpiperidin-1-yl]-2-oxoacetamido}pyridine-3-carboxamide]	6.30 to 7.30	5.00 to 6.00	> 7.30	> 7.00	A (an IC50 ratio greater than or equal to 10 fold)	< 6.00	6.30 to 7.30
COc1cc([C@@H]2CC[C@@H](C)CN2C(=O)C(=O)Nc2cncc(C(N)=O)c2)ccn1 (racemic) [Compound 225, rac-5-{2-[(2R,5S)-2-(2-Methoxypyridin-4-yl)-5-methylpiperidin-1-yl]-2-oxoacetamido}pyridine-3-carboxamide]	6.30 to 7.30	5.00 to 6.00	6.30 to 7.30	> 7.00	A (an IC50 ratio greater than or equal to 10 fold)	< 6.00	6.30 to 7.30
C[C@@H]1CC[C@@H](c2cncc(-n3cccn3)c2)N(C(=O)C(=O)Nc2cncc(C(N)=O)c2)C1 (racemic) [Compound 226, rac-5-{2-[(2R,5S)-5-Methyl-2-[5-(1H-pyrazol-1-yl)pyridin-3-yl]piperidin-1-yl]-2-oxoacetamido}pyridine-3-carboxamide]	6.30 to 7.30	< 5.00	6.30 to 7.30	< 6.00	C (an IC50 ratio of less than 3 fold)	< 6.00	< 6.30
COc1ccc([C@@H]2CC[C@@H](C)CN2C(=O)C(=O)Nc2cncc(C(N)=O)c2)cc1 (racemic) [Compound 228, rac-5-{2-[(2R,5S)-2-(4-Methoxyphenyl)-5-methylpiperidin-1-yl]-2-oxoacetamido}pyridine-3-carboxamide]	6.30 to 7.30	5.00 to 6.00	6.30 to 7.30	6.00 to 7.00	A (an IC50 ratio greater than or equal to 10 fold)	< 6.00	6.30 to 7.30
C[C@@H]1C[C@H](c2ccccc2)N(C(=O)C(=O)Nc2cncc(C(N)=O)c2)C[C@@H]1C (racemic) [Compound 229, 5-[[2-[(2S,4S,5S)-4,5-dimethyl-2-phenyl-1-piperidyl]-2-oxo-acetyl]amino]pyridine-3-carboxamide]	< 6.30	< 5.00	6.30 to 7.30	< 6.00	B (an IC50 ratio greater than or equal to 3 fold but lower than 10 fold)	< 6.00	< 6.30
COc1ccc([C@@H]2CC[C@@H](C)CN2C(=O)C(=O)Nc2cncc(C(N)=O)c2)cc1OC (racemic) [Compound 230, rac-5-{2-[(2R,5S)-2-(3,4-Dimethoxyphenyl)-5-methylpiperidin-1-yl]-2-oxoacetamido}pyridine-3-carboxamide]	6.30 to 7.30	5.00 to 6.00	> 7.30	6.00 to 7.00	A (an IC50 ratio greater than or equal to 10 fold)	< 6.00	6.30 to 7.30
C[C@@H]1C[C@H](c2ccccc2)N(C(=O)C(=O)Nc2cncc(C(N)=O)c2)C[C@H]1C (racemic) [Compound 231, 5-[[2-[(2R,4R,5S)-4,5-dimethyl-2-phenyl-1-piperidyl]-2-oxo-acetyl]amino]pyridine-3-carboxamide]	6.30 to 7.30	< 5.00	> 7.30	6.00 to 7.00	A (an IC50 ratio greater than or equal to 10 fold)	< 6.00	6.30 to 7.30
C[C@@H]1CC[C@@H](c2ccc3nccn3c2)N(C(=O)C(=O)Nc2cncc(C(N)=O)c2)C1 (racemic) [Compound 234, rac-5-{2-[(2R,5S)-2-{Imidazo[1,2-a]pyridin-6-yl}-5-methylpiperidin-1-yl]-2-oxoacetamido}pyridine-3-carboxamide]	6.30 to 7.30	< 5.00	6.30 to 7.30	< 6.00	C (an IC50 ratio of less than 3 fold)	< 6.00	6.30 to 7.30
Cc1cc(NC(=O)C(=O)N2C[C@H](C)CC[C@H]2c2ccnn2C)cnc1N (racemic) [Compound 235, N-(6-amino-5-methyl-3-pyridyl)-2-[(2R,5S)-5-methyl-2-(2-methylpyrazol-3-yl)-1-piperidyl]-2-oxo-acetamide]	6.30 to 7.30	< 5.00	6.30 to 7.30	< 6.00	B (an IC50 ratio greater than or equal to 3 fold but lower than 10 fold)	< 6.00	6.30 to 7.30
COc1ccc([C@@H]2CC[C@@H](C)CN2C(=O)C(=O)Nc2cncc(C(N)=O)c2)cc1C#N (racemic) [Compound 237, rac-5-{2-[(2R,5S)-2-(3-Cyano-4-methoxyphenyl)-5-methylpiperidin-1-yl]-2-oxoacetamido}pyridine-3-carboxamide]	6.30 to 7.30	< 5.00	6.30 to 7.30	< 6.00	B (an IC50 ratio greater than or equal to 3 fold but lower than 10 fold)	< 6.00	6.30 to 7.30
C[C@@H]1CC[C@@H](c2ccc(Cn3ccnc3)cc2)N(C(=O)C(=O)Nc2cncc(C(N)=O)c2)C1 (racemic) [Compound 238, rac-5-{2-[(2R,5S)-2-{4-[(1H-Imidazol-1-yl)methyl]phenyl}-5-methylpiperidin-1-yl]-2-oxoacetamido}pyridine-3-carboxamide]	6.30 to 7.30	5.00 to 6.00	> 7.30	6.00 to 7.00	A (an IC50 ratio greater than or equal to 10 fold)	< 6.00	6.30 to 7.30
C[C@@H]1CC[C@@H](c2cccc(C#N)c2)N(C(=O)C(=O)Nc2cncc(C(N)=O)c2)C1 (racemic) [Compound 239, rac-5-{2-[(2R,5S)-2-(3-Cyanophenyl)-5-methylpiperidin-1-yl]-2-oxoacetamido}pyridine-3-carboxamide]	6.30 to 7.30	5.00 to 6.00	> 7.30	> 7.00	A (an IC50 ratio greater than or equal to 10 fold)	< 6.00	6.30 to 7.30
C[C@@H]1CC[C@@H](c2ccc3ccoc3c2)N(C(=O)C(=O)Nc2cncc(C(N)=O)c2)C1 (racemic) [Compound 241, rac-5-{2-[(2R,5S)-2-(1-Benzofuran-6-yl)-5-methylpiperidin-1-yl]-2-oxoacetamido}pyridine-3-carboxamide]	6.30 to 7.30	5.00 to 6.00	> 7.30	> 7.00	A (an IC50 ratio greater than or equal to 10 fold)	< 6.00	6.30 to 7.30
C[C@@H]1CC[C@@H](c2ccc(Cl)c(Cl)c2)N(C(=O)C(=O)Nc2cncc(C(N)=O)c2)C1 (racemic) [Compound 243, rac-5-{2-[(2R,5S)-2-(3,4-Dichlorophenyl)-5-methylpiperidin-1-yl]-2-oxoacetamido}pyridine-3-carboxamide]	6.30 to 7.30	5.00 to 6.00	> 7.30	6.00 to 7.00	A (an IC50 ratio greater than or equal to 10 fold)	< 6.00	6.30 to 7.30
